Among the data in patent publication US20140377340A1, “HLA-DR BINDING PEPTIDES AND THEIR USES” (priority 2007, published 2014) are IC50 values, retold here.

Ends that are not written are not given here.

In one assay the target is T1, purified HLA DRB1*0301 (Homo sapiens, UniProt P01903+P01911, A100K/A102G/A103R/A169T/F55Y/I96L/K41T/L162R/M171V/P40S/Q125H/Q178H/Q39Y/R42S/S66N/T106N/T262R/W38E/Y61H).
T1 construct: purified from EBV transformed homozygous cell lines or single MHC allele transfected 721.221, C1R, or fibroblast lines; made in house
Nature of the assay: HLA-DR radioligand binding inhibition assay, DRB1*0301. As to conditions: IC50 nM purified HLA DRB1 *0301, purified HLA DRB1*0301. The procedure:
(§1) Instead, wells of an opaque white 96-well Optiplate (Packard) are coated with 3 μg (100 μl@ 30 μg/ml) of HLA-specific antibody (Ab) that “capture” complexes of radiolabeled MHC and unlabeled peptide transferred from the molecular binding assay plate in 100 μl of 0.05% NP40/PBS. After a 3-hour incubation period, the supernatant is decanted and scintillation fluid (Microscint 20) added. Captured complexes are then measured on a microplate scintillation and luminescence counter (TopCount NXTTM; Packard).
(§2) HLA-DR purification. Fifteen distinct HLA-DR molecules were used in quantitative assays to measure the binding of peptides to solubilized HLA-DR molecules. […] Briefly, columns of inactivated Sepharose CL4B and Protein A Sepharose were used as pre-columns. HLA-DR molecules were captured by passage of lysates over LB3.1 monoclonal antibody (anti-HLA-DRA) columns. Antibody columns were washed with 10 mM Tris-HCL, pH8.0 with 1% (v/v) NP-40, followed by PBS containing 0.4% (w/v) n-octylglucoside.
(§3) Briefly, 1-10 nM of radiolabeled peptide was co-incubated for 2 days at either room temperature or 37° C. with 1 μM to 1 nM purified HLA-DR molecules in the presence of a cocktail of protease inhibitors. Assays were performed at various pH conditions, ranging from pH 4 to pH 7. […] After incubation, the percentage of HLA-DR-bound radioactivity is determined by capturing HLA-DR/peptide complexes on Optiplates (Packard Instruments, Meriden, Conn.) coated with the LB3.1 antibody and determining bound counts per minute using the TopCount microscintillation counter (Packard Instruments).

The target of another assay is T2, purified HLA DRB1*0405 (Homo sapiens, UniProt P01903+P01911, A100R/A169T/D86S/F76Y/I96L/K127E/L162R/M171V/N62H/P40V/Q125Y/R42H/S133A/S149N/S66Y/V115G/V209L/W38E).
T2 construct: purified from EBV transformed homozygous cell lines or single MHC allele transfected 721.221, C1R, or fibroblast lines; made in house
Nature of the assay: HLA-DR radioligand binding inhibition assay, DRB1*0405. As to conditions: IC50 nM purified HLA DRB1 *0405, purified HLA DRB1*0405. The method in brief: (§4)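 Competition binding: 1-10 nM radiolabeled peptide + 1 μM–1 nM HLA-DR, protease inhibitor cocktail, 2 d, RT or 37° C., pH 4–7. LB3.1 capture 3 h in 0.05% NP40/PBS; scintillation counting.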

In the next assay the target is T3, purified HLA DRB1*0404 (Homo sapiens, UniProt P01903+P01911, A100R/A169T/F76Y/I96L/K127E/L162R/M171V/N62H/P40V/Q125Y/R42H/S133A/S149N/S66Y/V209L/W38E).
T3 construct: purified from EBV transformed homozygous cell lines or single MHC allele transfected 721.221, C1R, or fibroblast lines; made in house
Briefly: HLA-DR radioligand binding inhibition assay, DRB1*0404. As to conditions: IC50 nM purified HLA DRB1 *0404, purified HLA DRB1*0404. The method in brief: as §4

A further assay concerns the target T4, purified HLA DRB3*0101 (Homo sapiens, UniProt P01903+P79483).
T4 construct: purified from EBV transformed homozygous cell lines or single MHC allele transfected 721.221, C1R, or fibroblast lines; made in house
Nature of the assay: HLA-DR radioligand binding inhibition assay, DRB3*0101. As to conditions: IC50 nM purified HLA DRB3 *0101, purified HLA DRB3*0101. As for the experimental part:
as §1
as §2, with “n-octylglucoside. […] The pH was reduced to 8.0 and the eluates were concentrated by centrifugation in Centriprep 30 concentrators at 2000 rpm (Amicon, Beverly, Mass.).” for “n-octylglucoside.”
as §3, with “Instruments). […] Competitor peptides are tested in 2-4 complete, independent experiments, at concentrations ranging from […].” for “Instruments).”

The target in the next assay is T5, purified HLA DRB5*0101 (Homo sapiens, UniProt P01903+Q30154).
T5 construct: purified from EBV transformed homozygous cell lines or single MHC allele transfected 721.221, C1R, or fibroblast lines; made in house
Briefly: HLA-DR radioligand binding inhibition assay, DRB5*0101. As to conditions: IC50 nM purified HLA DRB5 *0101, purified HLA DRB5*0101. The procedure, abridged: as §4

Another assay has as its target T6, purified HLA DRB1*1302 (Homo sapiens, UniProt P01903+P01911, A100E/A169T/K41T/L162R/M171V/P40S/Q125H/Q178H/Q39Y/Q99D/R42S/S66N/T262R/V115G/W38E/Y61H).
T6 construct: purified from EBV transformed homozygous cell lines or single MHC allele transfected 721.221, C1R, or fibroblast lines; made in house
Nature of the assay: HLA-DR radioligand binding inhibition assay, DRB1*1302. The procedure, abridged:
as §4

A further assay concerns the target T7, purified HLA DRB1*1201 (Homo sapiens, UniProt P01903+P01911, A100R/A169T/D57E/D86V/F55L/H45Y/K41T/L162R/M171V/P40S/Q125H/Q178H/Q39Y/Q99D/R42G/S66L/T262R/V114A/V67L/W38E/Y59H/Y61H/Y89S).
T7 construct: purified from EBV transformed homozygous cell lines or single MHC allele transfected 721.221, C1R, or fibroblast lines; made in house
Briefly: HLA-DR radioligand binding inhibition assay, DRB1*1201. The procedure:
as §1
as §2, with “n-octylglucoside. […] The pH was reduced to 8.0 and the eluates were concentrated by centrifugation in Centriprep 30 concentrators at 2000 rpm (Amicon, Beverly, Mass.).” for “n-octylglucoside.”
as §3, with “Instruments). […] Competitor peptides are tested in 2-4 complete, independent experiments, at concentrations ranging from […].” for “Instruments).”

A further assay has as its target T8, purified HLA DRB1*0101 (Homo sapiens, UniProt P01903+P01911, A100R/D57E/F55L/F60I/F76Y/I96L/L162R/M171V/P40L/Q125E/R42F/V115G/Y59C).
T8 construct: purified from EBV transformed homozygous cell lines or single MHC allele transfected 721.221, C1R, or fibroblast lines; made in house
Nature of the assay: HLA-DR radioligand binding inhibition assay, DRB1*0101. As to conditions: IC50 nM purified HLA DRB1 *0101, purified HLA DRB1*0101. The procedure, abridged: as §4

For a further assay, the target named is T9, purified HLA DRB1*0401 (Homo sapiens, UniProt P01903+P01911, A100K/A169T/F76Y/I96L/K127E/L162R/M171V/N62H/P40V/Q125Y/R42H/S133A/S149N/S66Y/V115G/V209L/W38E).
T9 construct: purified from EBV transformed homozygous cell lines or single MHC allele transfected 721.221, C1R, or fibroblast lines; made in house
Nature of the assay: HLA-DR radioligand binding inhibition assay, DRB1*0401. As to conditions: IC50 nM purified HLA DRB1 *0401, purified HLA DRB1*0401. The method in brief: as §4

The target in another assay is T10, purified HLA DRB1*1101 (Homo sapiens, UniProt P01903+P01911, A100R/A169T/A87E/I96F/K41T/L162R/M171V/P40S/Q125H/Q178H/Q39Y/Q99D/R42S/S66Y/T262R/V115G/W38E).
T10 construct: purified from EBV transformed homozygous cell lines or single MHC allele transfected 721.221, C1R, or fibroblast lines; made in house
T10 sequence (P01903 26-254, other chains not shown): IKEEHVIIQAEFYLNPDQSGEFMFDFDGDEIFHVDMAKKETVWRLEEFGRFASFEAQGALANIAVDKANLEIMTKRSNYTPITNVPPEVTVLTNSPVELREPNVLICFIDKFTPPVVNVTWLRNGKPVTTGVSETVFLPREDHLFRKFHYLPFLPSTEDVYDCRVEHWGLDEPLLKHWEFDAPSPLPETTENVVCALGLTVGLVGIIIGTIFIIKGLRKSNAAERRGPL
Briefly: HLA-DR radioligand binding inhibition assay, DRB1*1101. As to conditions: IC50 nM purified HLA DRB1 *1101, purified HLA DRB1*1101. The procedure, abridged: as §4

Another assay addresses T11, purified HLA DRB1*1501 (Homo sapiens, UniProt P01903+P01911).
T11 construct: purified from EBV transformed homozygous cell lines or single MHC allele transfected 721.221, C1R, or fibroblast lines; made in house
Briefly: HLA-DR radioligand binding inhibition assay, DRB1*1501. The method in brief:
as §4

With WNLAAMTPHDFIEHF [Peptide 9019.0013], the IC50 (usually the midpoint of a concentration-inhibition curve) at purified HLA DRB1*0301 turned out to be 6420 nM.

For `CC(C)C[C@H](NC(=O)[C@H](CCC(=O)O)NC(=O)[C@@H](NC(=O)[C@@H](N)CCC(=O)O)[C@@H](C)O)C(=O)N[C@@H](CCCNC(=N)N)C(=O)N[C@@H](CCCCN)C(=O)N[C@H](C(=O)N[C@@H](CCCCN)C(=O)N[C@H](C(=O)N[C@@H](CC(C)C)C(=O)NCC(=O)N[C@@H](CO)C(=O)NCC(=O)N[C@@H](C)C(=O)N[C@@H](Cc1ccccc1)C(=O)O)C(C)C)C(C)C` [Peptide 9019.0073], the IC50 was 845 nM on purified HLA DRB1*0405, 27 nM at purified HLA DRB1*0404 and more than 20000 nM on purified HLA DRB3*0101.

With `CC[C@H](C)[C@H](NC(=O)[C@H](CCCNC(=N)N)NC(=O)CNC(=O)[C@H](CCCNC(=N)N)NC(=O)[C@@H](NC(=O)[C@@H](NC(=O)[C@H](CCC(N)=O)NC(=O)[C@H](CC(C)C)NC(=O)[C@@H](N)CC(N)=O)C(C)C)[C@@H](C)CC)C(=O)N[C@@H](CC(C)C)C(=O)N[C@@H](Cc1c[nH]cn1)C(=O)N[C@@H](CC(N)=O)C(=O)NCC(=O)N[C@@H](C)C(=O)N[C@@H](Cc1ccc(O)cc1)C(=O)O` [Peptide 9019.0053], the half-inhibitory concentration (IC50) on purified HLA DRB5*0101 is 28 nM; at purified HLA DRB1*1302, 9.9 nM; at purified HLA DRB1*1201, 47 nM; at purified HLA DRB1*0101 it was 1.9 nM.

For TMRLPDERGPLEHLY [Peptide 9019.0021], the IC50 at purified HLA DRB1*0301 is more than 20000 nM.

For the molecule `CC(C)C[C@H](NC(=O)[C@H](C)NC(=O)[C@H](Cc1ccc(O)cc1)NC(=O)[C@H](CC(N)=O)NC(=O)[C@H](CC(=O)O)NC(=O)[C@H](CCC(=O)O)NC(=O)[C@H](Cc1ccccc1)NC(=O)[C@H](CC(C)C)NC(=O)[C@H](CCC(N)=O)NC(=O)[C@@H](NC(=O)CN)[C@@H](C)O)C(=O)N[C@@H](C)C(=O)N[C@H](C(=O)N[C@@H](CC(C)C)C(=O)N[C@@H](CC(=O)O)C(=O)O)C(C)C` [Peptide 9019.0001], the IC50 on purified HLA DRB1*0401 amounted to 640 nM; on purified HLA DRB1*1302 it was 4 nM; on purified HLA DRB1*1101, 9130 nM; at purified HLA DRB1*1501 it was 450 nM; at purified HLA DRB1*0101 it was 210 nM; at purified HLA DRB1*0301 it was 29 nM.
